From the supplement of paper PMC13380429
Structures can show the parent of a compound that is named as a salt. ± gives the standard deviation of the averaged measurements.

Key:
Settings in all cases: 72 h
Caco-2 [1] = experiment: cell viability relative to DMSO; higher = less toxic
HepG2 [2] = experiment: as above
Vero E6 [3] = experiment: as above
U2OS [4] = experiment: as above
Caco-2 [5] = experiment: drug sensitivity score (DSS) for viability; higher = more toxic; extreme values may be limits of the assay
HepG2 [6] = experiment: as above
Vero E6 [7] = experiment: as above
U2OS [8] = experiment: as above
Caco-2 [9] = experiment: relative viability EC50 (midpoint between 100% and the lowest measured viability); higher = less toxic
HepG2 [10] = experiment: as above
Vero E6 [11] = experiment: as above
U2OS [12] = experiment: as above
Calu-3 [13] = experiment: cell viability relative to DMSO; higher = less toxic
Calu-3 [14] = experiment: drug sensitivity score (DSS) for viability; higher = more toxic; extreme values may be limits of the assay
Calu-3 [15] = experiment: relative viability EC50 (midpoint between 100% and the lowest measured viability); higher = less toxic

SMILES | cell viability (Caco-2 [1]; 1 nM) [%] | cell viability (Caco-2 [1]; 10 nM) [%] | cell viability (Caco-2 [1]; 100 nM) [%] | cell viability (Caco-2 [1]; 1000 nM) [%] | cell viability (Caco-2 [1]; 10000 nM) [%] | cell viability (HepG2 [2]; 1 nM) [%] | cell viability (HepG2 [2]; 10 nM) [%] | cell viability (HepG2 [2]; 100 nM) [%] | cell viability (HepG2 [2]; 1000 nM) [%] | cell viability (HepG2 [2]; 10000 nM) [%] | cell viability (Vero E6 [3]; 1 nM) [%] | cell viability (Vero E6 [3]; 10 nM) [%] | cell viability (Vero E6 [3]; 100 nM) [%] | cell viability (Vero E6 [3]; 1000 nM) [%] | cell viability (Vero E6 [3]; 10000 nM) [%] | cell viability (U2OS [4]; 1 nM) [%] | cell viability (U2OS [4]; 10 nM) [%] | cell viability (U2OS [4]; 100 nM) [%] | cell viability (U2OS [4]; 1000 nM) [%] | cell viability (U2OS [4]; 10000 nM) [%] | drug sensitivity score (Caco-2 [5]) | drug sensitivity score (HepG2 [6]) | drug sensitivity score (Vero E6 [7]) | drug sensitivity score (U2OS [8]) | relative viability EC50 (Caco-2 [9]) [µM] | relative viability EC50 (HepG2 [10]) [µM] | relative viability EC50 (Vero E6 [11]) [µM] | relative viability EC50 (U2OS [12]) [µM] | cell viability (Calu-3 [13]; 1 nM) [%] | cell viability (Calu-3 [13]; 10 nM) [%] | cell viability (Calu-3 [13]; 100 nM) [%] | cell viability (Calu-3 [13]; 1000 nM) [%] | cell viability (Calu-3 [13]; 10000 nM) [%] | drug sensitivity score (Calu-3 [14]) | relative viability EC50 (Calu-3 [15]) [µM]
C/C(=N\NC(=O)[C@@H]1C(=O)NC[C@H]1c1ccccc1)c1cccc(Br)c1 | 102 | 97.5 | 104 | 96 | 101 | 99.4 | 99.8 | 101 | 103 | 92.4 | 96.3 | 97.9 | 94 | 98.2 | 96.4 | 99.9 | 100 | 103 | 94.1 | 97.5 | 0 | 0 | 0 | 0 | > 10 | > 10 | > 10 | > 10 | – | – | – | – | – | – | –
COc1ccc(CNC(=O)/C=C/c2ccc3[nH]cc(CCN(C)C)c3c2)cc1 | 106 | 95 | 93.8 | 96.6 | 98.7 | 107 | 90.6 | 93.5 | 94 | 96.8 | 98.5 | 98 | 101 | 101 | 102 | 102 | 97.4 | 98.1 | 98.9 | 99.3 | 0 | 0 | 0 | 0 | > 10 | > 10 | > 10 | > 10 | – | – | – | – | – | – | –
CN(C)/N=N/c1ccc(C(=O)O)cc1 [CB-10-277] | 95.8 | 97.3 | 101 | 96.6 | 102 | 102 | 95.9 | 113 | 102 | 105 | 98.7 | 98.3 | 97.6 | 97.2 | 106 | 96.6 | 104 | 98.1 | 99.9 | 104 | 0 | 0 | 0 | 0 | > 10 | > 10 | > 10 | > 10 | – | – | – | – | – | – | –
O=C(CN1C(=O)C2(CCCC2)NC[C@H]1c1cc(F)cc(F)c1)Nc1ccc2c(c1)C[C@@]1(C2)C(=O)Nc2ncccc21 [MK-3207] | 99 | 101 | 93 | 106 | 88.8 | 91.2 | 106 | 101 | 113 | 101 | – | – | – | – | – | 104 | 101 | 102 | 96.8 | 101 | 0 | 0 | – | 0 | > 10 | > 10 | – | > 10 | 96.6 | 92.9 | 98.2 | 93.4 | 109 | 0 | > 10
O=c1cc(N2CCN(c3cccc(C(F)(F)F)c3)CC2)[nH]c(=O)n1C1CCCCC1 [ML179] | 95.5 | 96.8 | 97.2 | 98 | 96.5 | 100 | 105 | 94.4 | 82.6 | 77.7 | 102 | 101 | 98.4 | 100 | 99.7 | 101 | 97.5 | 100 | 97.9 | 101 | 0 | 2.7 | 0 | 0 | > 10 | > 10 | > 10 | > 10 | – | – | – | – | – | – | –
CC(C)c1ccc(-c2cc(=O)c3ccccc3o2)cc1 [MN-64] | 105 | 98.8 | 105 | 84.9 | 81.1 | 91.9 | 97.6 | 94.8 | 94.8 | 65.1 | 96.6 | 94.2 | 98.9 | 98 | 61.5 | 102 | 99.4 | 102 | 95.2 | 88.2 | 1.9 | 2.5 | 2.2 | 0.2 | > 10 | – | – | > 10 | 113 | 105 | 97.2 | 96.1 | 72.7 | 1.7 | –
O=C1C(Cl)=C(N2CCOCC2)C(=O)N1c1ccc(Cl)c(Cl)c1 [RI-1] | 97.2 | 94.9 | 93.2 | 106 | 110 | 98.9 | 107 | 103 | 97.3 | 98.6 | 102 | 95.5 | 97.7 | 97.1 | 107 | 89.2 | 97.2 | 96.8 | 96.7 | 101 | 0 | 0 | 0 | 0 | > 10 | > 10 | > 10 | > 10 | – | – | – | – | – | – | –
O=C(NCc1cccc(O)c1)Nc1nc(-c2ccncc2)cs1 [RKI-1447] | 97.8 ± 5.2 | 97 ± 0.14 | 94.8 ± 6.2 | 96.6 ± 1.1 | 81.3 ± 0.14 | 94.2 ± 6 | 108 ± 9.9 | 101 ± 3.4 | 91.95 ± 0.49 | 73.1 ± 8.9 | 99.5 ± 3.7 | 100 ± 4.4 | 91.1 ± 13 | 76.1 ± 0.42 | 73.4 ± 0.28 | 98.8 ± 2.4 | 99.3 ± 2.8 | 101 ± 4.9 | 87.5 ± 3.1 | 61.8 ± 2.3 | 0.65 ± 0.49 | 2.05 ± 1.1 | 5.05 ± 1.8 | 3.6 ± 0.57 | > 10 | – | – | – | 97.9 | 128 | 146 | 148 | 144 | 0 | > 10
[O-][S+](c1ccccc1)c1ccc2nnnn2n1 (stereo not given) [Ro-106-9920] | 89.7 | 92.3 | 92.1 | 95.4 | 39.5 | 106 | 102 | 110 | 98.1 | 1.1 | 97.7 | 95.6 | 95.9 | 90.5 | 12.1 | 99.9 | 103 | 95 | 95.9 | 2.5 | 4 | 5.8 | 6.4 | 6 | 2.54 | 3.03 | 2.28 | 2.84 | 96.3 | 94.9 | 105 | 98.8 | 63.7 | 1.9 | –
O=C1NC(=O)/C(=C/c2cccc(C(F)(F)F)c2)S1 [SMI-4a] | 97.7 | 101 | 105 | 104 | 92.7 | 96.4 | 112 | 91 | 97.4 | 105 | 104 | 101 | 99.1 | 101 | 95.9 | – | – | – | – | – | 0 | 0 | 0 | – | > 10 | > 10 | > 10 | – | 101 | 98.1 | 95.4 | 100 | 97.4 | 0 | > 10
FC(F)(F)c1ccccc1-n1ccnc1 [TRIM] | 106 | 104 | 98.6 | 93.5 | 108 | 96.7 | 110 | 108 | 103 | 89.5 | – | – | – | – | – | 99.6 | 97.8 | 103 | 95.7 | 103 | 0 | 0 | – | 0 | > 10 | > 10 | – | > 10 | 98.7 | 99.5 | 92.6 | 97 | 97.2 | 0 | > 10
Cc1cn(C[C@H](N)C(=O)O)c(=O)n(Cc2ccsc2C(=O)O)c1=O [UBP-310] | 99.7 | 93.6 | 101 | 93 | 99.5 | 96.6 | 91.3 | 94.6 | 91.2 | 88.1 | 97.3 | 101 | 98.3 | 97.6 | 97.3 | 98.8 | 97.3 | 98.5 | 97 | 98.5 | 0 | 0 | 0 | 0 | > 10 | > 10 | > 10 | > 10 | – | – | – | – | – | – | –
CN[C@H](CC(C)C)C(=O)N[C@H]1C(=O)N[C@@H](CC(N)=O)C(=O)N[C@H]2C(=O)N[C@H]3C(=O)N[C@H](C(=O)N[C@H](C(=O)O)c4cc(O)cc(O)c4-c4cc3ccc4O)[C@H](O)c3ccc(c(Cl)c3)Oc3cc2cc(c3O[C@@H]2O[C@H](CO)[C@@H](O)[C@H](O)[C@H]2O[C@H]2C[C@](C)(N)[C@H](O)[C@H](C)O2)Oc2ccc(cc2Cl)[C@H]1O [VANCOMYCIN HYDROCHLORIDE] | 80.7 | 92.2 | 94.9 | 99.8 | 100 | 93.7 | 105 | 105 | 96.4 | 125 | 98.1 | 99.5 | 98.3 | 98.5 | 104 | 99.7 | 95.6 | 97.4 | 101 | 106 | 0 | 0 | 0 | 0 | > 10 | > 10 | > 10 | > 10 | – | – | – | – | – | – | –
CCCCCCc1ccc(O)cc1O.Nc1c2ccccc2nc2ccccc12 [acrisorcin] | 99.5 | 103 | 96.6 | 96.7 | 47.4 | 103 | 106 | 95.3 | 77.9 | 0.3 | 105 | 102 | 102 | 91.7 | 0.3 | 100 | 101 | 100 | 96.1 | 27.9 | 3.3 | 9 | 6.8 | 4.5 | 2.66 | 1.65 | 2.49 | 2.75 | 99.1 | 88.3 | 101 | 96.4 | 60.7 | 2.5 | –
NCCCNCCSP(=O)(O)O [amifostine] | 88.8 | 100 | 86.4 | 100 | 92.7 | 103 | 100 | 96.6 | 93 | 98.2 | 104 | 108 | 106 | 97.3 | 102 | – | – | – | – | – | 0 | 0 | 0 | – | > 10 | > 10 | > 10 | – | 95.8 | 101 | 101 | 100 | 98 | 0 | > 10
